# Source: patent publication US7091183B1 (Boston Medical Center Corporation, priority 1996, dated 2006)
# Where no end group is shown, it is not given here.
# Legend:
# rat GIP receptor [1] = target: T1, rat GIP receptor (Rattus norvegicus, UniProt P43219); test: cAMP-dependent β-galactosidase production in LGIPR2 cells (agonist activity); assay type: cell-based
# T1 construct: expressed in transfected cells; host or cells: L cells (LGIPR2), also carrying a VIP-promoter/lacZ cAMP reporter
# T1 sequence (P43219 19-455): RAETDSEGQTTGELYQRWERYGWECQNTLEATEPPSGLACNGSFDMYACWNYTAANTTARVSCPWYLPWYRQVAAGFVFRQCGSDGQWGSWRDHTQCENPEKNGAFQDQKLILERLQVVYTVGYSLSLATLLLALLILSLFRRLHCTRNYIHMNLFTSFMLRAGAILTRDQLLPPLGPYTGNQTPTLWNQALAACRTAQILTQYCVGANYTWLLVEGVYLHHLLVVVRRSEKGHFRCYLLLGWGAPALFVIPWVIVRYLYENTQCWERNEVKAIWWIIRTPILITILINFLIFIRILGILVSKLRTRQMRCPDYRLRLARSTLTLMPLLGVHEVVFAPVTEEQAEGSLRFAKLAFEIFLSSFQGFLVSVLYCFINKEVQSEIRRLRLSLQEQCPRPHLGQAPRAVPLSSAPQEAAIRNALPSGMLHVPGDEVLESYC
# Excerpt: LGIPR2 cells are stably transfected with a cAMP-dependent promoter from the VIP gene fused to the bacterial lac Z gene. When intracellular cAMP increases within these cells, lac Z gene transcription is activated, resulting in the accumulation of its product, β-galactosidase. The measurement of β-galactosidase in this system provided a convenient, inexpensive, and nonradioactive method for detecting changes in the levels of intracellular cAMP. […] The medium was then removed and wells rinsed once with phosphate-buffered saline (PBS). The plates were then blotted briefly and frozen overnight at −70° C., and, after the addition of chlorophenol red-β-D-galactopyranoside, accumulated β-galactosidase was detected using a calorimetric assay, as described previously (Usdin, et al., 1993, Endocrinology, 133:2861–2870). […] Natl. Acad. Sci. USA, 90:1992–1996).
# rat GIP receptor [2] = target: T1, rat GIP receptor; test: Inhibition of GIP (1–42)-stimulated cAMP-dependent β-galactosidase production in LGIPR2 cells; assay type: cell-based
# Experimental: LGIPR2 cells are stably transfected with a cAMP-dependent promoter from the VIP gene fused to the bacterial lac Z gene. When intracellular cAMP increases within these cells, lac Z gene transcription is activated, resulting in the accumulation of its product, β-galactosidase. The measurement of β-galactosidase in this system provided a convenient, inexpensive, and nonradioactive method for detecting changes in the levels of intracellular cAMP.
# LGIPR2 cells were grown in Dulbecco's Modified Eagle's Medium (DMEM) containing 4.5 g/L of glucose and 10% fetal calf serum. For each assay, 10^5 cells/well were seeded onto 24-well plates. After incubation overnight, peptides were added in various concentrations to the wells in the absence of 3-isobutyl-methylxanthine (IBMX) for 4 h, at which time maximal stimulation of β-galactosidase was determined. The medium was then removed and wells rinsed once with phosphate-buffered saline (PBS). The plates were then blotted briefly and frozen overnight at −70° C., and, after the addition of chlorophenol red-β-D-galactopyranoside, accumulated β-galactosidase was detected using a calorimetric assay, as described previously (Usdin, et al., 1993, Endocrinology, 133:2861–2870).
# Values are expressed as the mean±SE of quadruplicate measurements.
# fasted anesthetized rats = test: Intravenous infusion of peptides in fasting anesthetized rats, plasma insulin; assay type: in vivo, rat
# conscious trained rats = test: Postprandial plasma insulin, serum glucose and GLP-1 in trained conscious fed rats; assay type: in vivo, rat; settings: for postprandial plasma insulin concentration: chow 30 min
# Experimental: Postprandial plasma insulin and serum glucose levels were studied in conscious trained rats. […] To avoid such a response, rats were trained for 10 d before experimentation. They were fasted from 17:00 to 08:00, and 0.9% NaCl (0.3 ml) was injected subcutaneously at 08:00 before feeding. After the injection of 0.9% NaCl, animals were given rat chow for 30 min, after which it was removed. At the end of ten days, the rats were accustomed to the injection and ate quickly (consuming 4–6 g of rat chow within 30 min).
# On the day of the experiment, after fasting from 17:00 the night before, trained rats were injected subcutaneously at 08:00 with 0.3 ml of either 0.9% NaCl or ANTGIP (SEQ ID NO:8) (100 nmol/kg). This dose was chosen to approximately the amount of peptide used in the anesthetized animal studies of Example 3. After injection, six of the fasted control rats were killed to obtain baseline serum glucose and insulin levels. ANTGIP (SEQ ID NO:8)- or 0.9% NaCl-treated rats (n=6 in each group) were exposed to chow for 30 min, after which food was withdrawn.
# rats = test: Oral glucose tolerance test in rats; assay type: in vivo, rat; settings: ANTGIP 300 ng/kg i.p., glucose 1 g per kg by gavage
# Experimental: Oral glucose tolerance tests were performed on rats injected intraperitoneally with ANTGIP (SEQ ID NO:8) (300 ng/kg) or 0.9% saline solution. After the intraperitoneal injection of 0.9% NaCl or ANTGIP (SEQ ID NO:8), an oral glucose tolerance test was performed. The test was done by administering a 40% glucose solution by oral gavage at a dose of 1 g per kg. The volume administered to each rat was approximately 0.5 ml. Blood was obtained at various time points for subsequent measurement of plasma insulin and glucose levels.
# [3] = test system: jejunal test segment of anesthetized rats; test: Intestinal glucose absorption from perfused jejunal segment; assay type: in vivo, rat; settings: ANTGIP 10 nmol/kg i.v. single injection, 30 minute perfusion
# Experimental: Male Sprague-Dawley rats weighing about 200–250 g are fasted overnight and anesthetized using intraperitoneal urethane (about 1.25 g per kg body weight). After midline laparotomy, an about 30-cm segment of jejunum, starting at about 5 cm distal to the ligament of Treitz, is isolated and flushed with approximately 20 ml of about 0.9% NaCl. The jejunal test segments are each perfused twice, initially with control buffer and then once again with control buffer or with the test solution. The test solution consists of Kres-Ringer-bicarbonate buffer containing about 5 mmol/L [^14C]D-glucose, and ^3H-labeled polyethylene glycol is included in the luminal perfusate to correct for fluid movement. The test or control solution is perfused through the jejunal segment without recirculation at a flow rate of about 1.6 ml/min, using a Harvard PHD 2000 syringe pump (Harvard Apparatus, Millis, Mass.). The effluent from the luminal segment is collected at about 5-min intervals for about 30 min. After the initial period of perfusion, the luminal contents in the jejunum are flushed with about 20 ml of about 0.9% NaCl prior to the initiation of the second period of perfusion.
# Data points are believed to represent the rate of glucose disappearance from the luminal perfusate corrected for fluid movement. Results are expressed as the mean±SE of five experiments. […]
# [4] = 20 min, ANTGIP 100 nmol/kg s.c.
# [5] = 40 min, ANTGIP 100 nmol/kg s.c.
substance,measurement,setting,value
"ISDYSIAMDKIRQQDFVNWLLAQK-NH2 [ANTGIP, GIP (7–30)-NH2]",stimulation of cAMP-dependent β-galactosidase production (versus GIP (1–42) / above control levels),"rat GIP receptor [1]; 10^−8 M peptide, 4 h",none
same,increase in cAMP-dependent β-galactosidase level,rat GIP receptor [1]; concentration as high as 10^−4 M,did not stimulate a detectable increase
same,IC50,rat GIP receptor [2],100 nM
same,antagonism of the cAMP stimulatory effect of GIP (1–42),"rat GIP receptor [2]; 10^−8 M GIP (1–42) plus fragment at 10^−8 M or 10^−6 M, 4 h",attenuate the cAMP stimulatory effects
same,"change in the insulin response to GLP-1, glucose or arginine",fasted anesthetized rats; ANTGIP 100 nmol/kg concomitantly,No significant change
same,effect on the insulinotropic properties of GIP,fasted anesthetized rats; ANTGIP 100 nmol/kg concomitantly with GIP 1.5 nmol/kg,completely abolished
same,"effect on insulin secretion, alone","fasted anesthetized rats; ANTGIP infusion alone, 30 min",had no effect on insulin secretion
same,postprandial serum GLP-1 level,conscious trained rats; [4],290 ± 10 pg/mL
same,postprandial plasma insulin concentration,conscious trained rats; [4],25.3±4.7 μIU/ml
same,postprandial serum GLP-1 concentration,conscious trained rats; [5],330±20 pg/mgl
same,postprandial plasma insulin concentration,conscious trained rats; [5],27.1±2.6 μIU/ml
same,postprandial serum glucose concentration versus saline,conscious trained rats; ANTGIP 100 nmol/kg s.c.,similar
same,decrease in postprandial insulin release,conscious trained rats; chow-fed rats,72%
same,plasma glucose after oral glucose versus control rats,rats,diminished at all time points
same,plasma insulin levels after oral glucose,rats,reduced plasma insulin levels
same,absorption of D-glucose from the jejunal test segment,[3],significantly reduce
